Values of other authors in US4803080A (BYK Gulden Lomberg Chemische Fabrik, priority 1984, dated 1989).

Cn1c(=O)c2[nH]cnc2n(C)c1=O [Theophylline, 1,3-dimethylxanthine]
Serum theophylline levels regarded as toxic range (Nolte and Neumann): more than 20 μg/ml
Absorption from the gastrointestinal tract during the night (in vivo): slowed down during the night
Therapeutic range, plasma levels (in vivo): 8-20 mg/1
